Experimental data as given in patent US20240368133A1, “Compounds for the Treatment of Pain, in Particular, Neuropathic Pain, and/or Other Diseases or Disorders that are Associated with AT2R and/or AT2R Mediated Signaling” (Confo Therapeutics N.V., priority 2021, published 2024).

How the values were obtained:
human AT1R = human AT1R (Homo sapiens (Human), UniProt P30556); assay: Counterscreen radioligand binding assay, displacement of 125I-[Sar1, Ile8]-Angiotensin II, hAT1R WT; conditions: for inhibition at 1 µM / inhibition at 10 µM: 125I-[Sar1, Ile8]-Ang II, semi-quantitative score; for inhibition at 1 µM: compound at 1 μM, read-out: % Displaced radioligand at 1 μM; for inhibition at 10 µM: compound at 10 μM, read-out: % Displaced radioligand at 10 μM; for IC50: HEK-293 cell membranes, read-out: Binding affinity On hAT1R IC50
How it was run: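 Compounds displaced 0.05 nM 125I-[Sar1, Ile8]-Ang II from human AT1R in HEK-293 membranes (1 h, 25° C; Tris/MgCl2/EDTA/BSA buffer, pH 7.4). Readout was filtration and scintillation counting, with non-specific binding set by 10 μM [Sar1]-Ang II. Values are % displacement at 1 μM and […], or IC50 from eight-point four-parameter fits.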

human AT2R fused to Cb23 = human AT2R fused to Cb23 (Homo sapiens, UniProt P50052); assay: Radioligand binding assay, displacement of 125I-[Sar1, Ile8]-Angiotensin II, hAT2R Cb23; conditions: displacement of 125I-[Sar1, Ile8]-Angiotensin II, human AT2R fused to Cb23, HEK-293 cell membrane preparations; read-out: Binding affinity on hAT2R_Cb23 IC50
How it was run: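 Membranes from HEK-293 cells expressing human AT2R fused to Cb23 were incubated with 0.05 nM 125I-[Sar1, Ile8]-Angiotensin II in 100 μL buffer (50 mM Tris, 5 mM MgCl2, 1 mM EDTA, 0.1% BSA, pH 7.4) for one hour at 25° C. Ligands were tested as eight-point dose-response curves in duplicate, with C21 and Angiotensin II as references.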

Sequence of human AT2R fused to Cb23 (P50052 whole entry, looked up, the tested form may be a part): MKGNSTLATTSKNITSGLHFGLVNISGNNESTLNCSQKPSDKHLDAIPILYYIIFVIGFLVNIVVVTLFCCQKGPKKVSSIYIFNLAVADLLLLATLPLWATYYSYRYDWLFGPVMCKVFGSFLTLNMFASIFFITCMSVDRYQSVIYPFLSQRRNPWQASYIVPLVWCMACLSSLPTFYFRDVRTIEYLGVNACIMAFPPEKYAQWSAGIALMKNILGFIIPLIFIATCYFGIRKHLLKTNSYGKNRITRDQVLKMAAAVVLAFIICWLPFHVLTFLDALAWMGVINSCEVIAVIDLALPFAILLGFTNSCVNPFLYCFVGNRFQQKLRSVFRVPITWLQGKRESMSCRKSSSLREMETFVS
Sequence of human AT1R (P30556 whole entry): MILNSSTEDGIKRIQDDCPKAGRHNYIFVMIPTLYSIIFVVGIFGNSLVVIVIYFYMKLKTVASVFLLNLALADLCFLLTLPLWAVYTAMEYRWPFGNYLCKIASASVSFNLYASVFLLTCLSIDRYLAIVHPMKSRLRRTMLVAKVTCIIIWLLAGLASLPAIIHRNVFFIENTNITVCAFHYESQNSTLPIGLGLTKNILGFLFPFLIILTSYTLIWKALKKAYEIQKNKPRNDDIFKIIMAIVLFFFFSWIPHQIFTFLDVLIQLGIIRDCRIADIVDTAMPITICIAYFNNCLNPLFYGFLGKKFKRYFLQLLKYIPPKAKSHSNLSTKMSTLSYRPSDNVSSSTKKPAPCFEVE

SMILES	inhibition at 1 µM (human AT1R) [%]	inhibition at 10 µM (human AT1R) [%]	IC50 (human AT2R fused to Cb23) [µM]	IC50 (human AT1R) [µM]
CCc1cc(-c2nn[nH]n2)c(N2CCN(Cc3nc4ccccc4s3)CC2)cc1OC(C)C [Compound A-119, 2-[[4-[4-ethyl-5-isopropoxy-2-(2H-tetrazol-5-yl)phen-yl]piperazin-1-yl]-methyl]-1,3-benzo-thiazole]	< 30	< 30	9.42	
CCc1cc(OC(C)C)cc(N2CCN(Cc3nc4ccccc4s3)CC2)c1-c1nn[nH]n1 [Compound A-120, 2-[[4-[3-ethyl-5-iso-propoxy-2-(2H-tetrazol-5-yl)phen-yl]piperazin-1-yl]-methyl]-1,3-benzo-thiazole]	< 30	< 30	0.459	
CC(C)Oc1cc(N2CCN(Cc3nc4ccccc4s3)CC2)c(-c2nn[nH]n2)cc1C1CC1 [Compound A-121, 2-[[4-[4-cycloprop-yl-5-isopropoxy-2-(2H-tetrazol-5-yl)-phenyl]piperazin-1-yl]methyl]-1,3-benzothiazole]	< 30	30 to 50	2.78	11.7
CC(C)Oc1cc(C2CC2)c(-c2nn[nH]n2)c(N2CCN(Cc3nc4ccccc4s3)CC2)c1 [Compound A-122, 2-[[4-[3-cycloprop-yl-5-isopropoxy-2-(2H-tetrazol-5-yl)-phenyl]piperazin-1-yl]methyl]-1,3-benzothiazole]	< 30	< 30	0.293	
CCOc1cc(-c2nn[nH]n2)c(N2CCN(Cc3nc4ccccc4s3)CC2)cc1OC(C)C [Compound A-123, 2-[[4-[4-ethoxy-5-isopropoxy-2-(2H-tetrazol-5-yl)phen-yl]piperazin-1-yl]-methyl]-1,3-benzo-thiazole]	< 30	< 30	4.88	
Fc1cc(C2CC2)cc(N2CCN(Cc3nc4ccccc4s3)CC2)c1-c1nn[nH]n1 [Compound A-125, 2-[[4-[5-cycloprop-yl-3-fluoro-2-(2H-tetrazol-5-yl)phen-yl]piperazin-1-yl]-methyl]-1,3-benzo-thiazole]	< 30	< 30	0.389	
Cc1cc(C2CC2)cc(N2CCN(Cc3nc4ccccc4s3)CC2)c1-c1nn[nH]n1 [Compound A-127, 2-[[4-[5-cycloprop-yl-3-methyl-2-(2H-tetrazol-5-yl)phen-yl]piperazin-1-yl]-methyl]-1,3-benzo-thiazole]	< 30	< 30	0.0744	
CCc1cc(C2CC2)cc(N2CCN(Cc3nc4ccccc4s3)CC2)c1-c1nn[nH]n1 [Compound A-128, 2-[[4-[5-cycloprop-yl-3-ethyl-2-(2H-tetrazol-5-yl)phen-yl]piperazin-1-yl]-methyl]-1,3-benzo-thiazole]	30 to 50	> 50	2.19	18.2
c1ccc2sc(CN3CCN(c4cc(C5CC5)cc(C5CC5)c4-c4nn[nH]n4)CC3)nc2c1 [Compound A-129, 2-[[4-[3,5-dicyclo-propyl-2-(2H-tetrazol-5-yl)phen-yl]piperazin-1-yl]-methyl]-1,3-benzo-thiazole]	< 30	< 30	0.158	
CC(C)Cc1cc(F)c(-c2nn[nH]n2)c(N2CCN(Cc3nc4ccccc4s3)CC2)c1 [Compound A-132, 2-[[4-[3-fluoro-5-isobutyl-2-(2H-tetrazol-5-yl)phen-yl]piperazin-1-yl]-methyl]-1,3-benzo-thiazole]	< 30	< 30	0.355	
CC(C)Cc1cc(N2CCN(Cc3nc4ccccc4s3)CC2)c(-c2nn[nH]n2)cc1F [Compound A-133, 2-[[4-[4-fluoro-5-isobutyl-2-(2H-tetrazol-5-yl)phen-yl]piperazin-1-yl]-methyl]-1,3-benzo-thiazole]	< 30	< 30	1.19	
Cc1cc(-c2nn[nH]n2)c(N2CCN(Cc3nc4ccccc4s3)CC2)cc1CC(C)C [Compound A-134, 2-[[4-[5-isobutyl-4-methyl-2-(2H-tetrazol-5-yl)phen-yl]piperazin-1-yl]-methyl]-1,3-benzo-thiazole]	< 30	< 30	9.66	
Cc1cc(CC(C)C)cc(N2CCN(Cc3nc4ccccc4s3)CC2)c1-c1nn[nH]n1 [Compound A-135]	< 30	< 30	0.022	
CCc1cc(CC(C)C)cc(N2CCN(Cc3nc4ccccc4s3)CC2)c1-c1nn[nH]n1 [Compound A-136, 2-[[4-[3-ethyl-5-isobutyl-2-(2H-tetrazol-5-yl)phen-yl]piperazin-1-yl]-methyl]-1,3-benzo-thiazole]	< 30	< 30	0.0121	
CC(C)Cc1cc(C2CC2)c(-c2nn[nH]n2)c(N2CCN(Cc3nc4ccccc4s3)CC2)c1 [Compound A-137, 2-[[4-[3-cycloprop-yl-5-isobutyl-2-(2H-tetrazol-5-yl)-phenyl]piperazin-1-yl]methyl]-1,3-benzothiazole]	< 30	< 30	0.016	
CC(C)Cc1cc(N2CCN(Cc3nc4ccccc4s3)CC2)c(-c2nn[nH]n2)cc1N [Compound A-138, 4-[4-(1,3-benzo-thiazol-2-ylmethyl)-piperazin-1-yl]-2-isobutyl-5-(2H-tetrazol-5-yl)aniline]	< 30	< 30	4.71	
CNc1cc(-c2nn[nH]n2)c(N2CCN(Cc3nc4ccccc4s3)CC2)cc1CC(C)C [Compound A-139, 4-[4-(1,3-benzothi-azol-2-ylmethyl)-piperazin-1-yl]-2-isobutyl-N-methyl-5-(2H-tetrazol-5-yl)aniline]	< 30	< 30	4.96	
CCNc1cc(-c2nn[nH]n2)c(N2CCN(Cc3nc4ccccc4s3)CC2)cc1CC(C)C [Compound A-140, 4-[4-(1,3-benzo-thiazol-2-ylmethyl)-piperazin-1-yl]-N-ethyl-2-isobutyl-5-(2H-tetrazol-5-yl)-aniline]	< 30	30 to 50	0.736	24.7
CCc1ccc(-c2nn[nH]n2)c(N2CCN(Cc3nc4ccccc4s3)CC2)n1 [Compound A-142, 2-[[4-[6-ethyl-3-(2H-tetrazol-5-yl)-2-pyridyl]piperazin-1-yl]methyl]-1,3-benzothiazole]	< 30	30 to 50	9.11	
c1ccc2sc(CN3CCN(c4cc(C5CC5)cnc4-c4nn[nH]n4)CC3)nc2c1 [Compound A-143, 2-[[4-[5-cycloprop-yl-2-(2H-tetrazol-5-yl)-3-pyridyl]piper-azin-1-yl]methyl]-1,3-benzothiazole]	< 30	< 30	5.46	
c1ccc2sc(CN3CCN(c4nc(C5CC5)ccc4-c4nn[nH]n4)CC3)nc2c1 [Compound A-145, 2-[[4-[6-cycloprop-yl-3-(2H-tetrazol-5-yl)-2-pyridyl]piper-azin-1-yl]methyl]-1,3-benzothiazole]	< 30	< 30	8.22	
c1ccc2sc(CN3CCN(c4nc(C5CC5)cnc4-c4nn[nH]n4)CC3)nc2c1 [Compound A-146, 2-[[4-[6-cycloprop-yl-3-(2H-tetrazol-5-yl)pyrazin-2-yl]-piperazin-1-yl]-methyl]-1,3-benzo-thiazole]	< 30	< 30	9.74	
CC(C)Cc1cnc(-c2nn[nH]n2)c(N2CCN(Cc3nc4ccccc4s3)CC2)c1 [Compound A-147, 2-[[4-[5-isobutyl-2-(2H-tetrazol-5-yl)-3-pyridyl]piperazin-1-yl]methyl]-1,3-benzothiazole]	< 30	< 30	1.47	
CC(C)Cc1ccc(-c2nn[nH]n2)c(N2CCN(Cc3nc4ccccc4s3)CC2)n1 [Compound A-148, 2-[[4-[6-isobutyl-3-(2H-tetrazol-5-yl)-2-pyridyl]piperazin-1-yl]methyl]-1,3-benzothiazole]	< 30	< 30	6.24	
c1ccc2sc(CN3CCN(c4cc(NCC5CC5)cnc4-c4nn[nH]n4)CC3)nc2c1 [Compound A-149, 5-[4-(1,3-benzo-thiazol-2-ylmethyl)-piperazin-1-yl]-N-(cyclopropylmeth-yl)-6-(2H-tetrazol-5-yl)pyridin-3-amine]	< 30	< 30	8.4	
CC(C)Oc1cc(F)c(-c2nn[nH]n2)c(N2CCN(Cc3nc4ccccc4c(=O)[nH]3)CC2)c1 [Compound A-151, 2-[[4-[3-fluoro-5-isopropoxy-2-(2H-tetrazol-5-yl)phen-yl]piperazin-1-yl]-methyl]-3H-quin-azolin-4-one]	< 30	< 30	6.79	
CC(C)Oc1cc(C2CC2)c(-c2nn[nH]n2)c(N2CCN(Cc3nc4ccccc4c(=O)[nH]3)CC2)c1 [Compound A-152]	< 30	< 30	2.87	
